# Laboratory results as given in US20110281788A1, “ANTI FUNGAL THERAPY” (priority 2008, published 2011).
# Like-named read-outs stand apart in the source and are kept apart here. Where a SMILES comes first, the peptide text is derived from it. Where no end group is shown, it is not given here.
# How the values were obtained:
# yeast = assay: Liquid culture assay of yeast growth inhibition, OD600 growth curves (FIG. 4); type: cell-based; conditions: sub-inhibitory peptide combined with sub-inhibitory caspofungin
# Method: The lines represent: Blue—untreated yeast culture alone; Yellow—yeast culture in the presence of a subinhibitory concentration of caspofungin alone; Green—yeast culture in the presence of a subinhibitory concentration of an antimicrobial peptide alone; Red—culture in the presence of a combination of sub-inhibitory caspofungin with sub-inhibitory peptide.
# Sterile MEB, pH 7 was added (300 μl) to each well of 48-well microtitre plate (Greiner Bio-one Ltd, Stonehouse, UK) followed by appropriate concentrations of each peptide alone, caspofungin alone and various combinations of peptides with caspofungin. The wells were then inoculated with mid-exponential phase yeast cultures to give starting cell numbers of 1000 cells per well. […] OD600 readings were taken every 15 minutes. Data was analysed in Microsoft Excel.
# [1] = tested on: yeast (Saccharomyces cerevisiae); assay: Disc diffusion assay of yeast growth inhibition (FIG. 1 A-G); type: cell-based
# Text: The data shown in FIG. 1(h)-(n) are for the highly resistant yeast Candida glabrata which is difficult to treat due to its high intrinsic resistance to traditional antifungals. The data shown in FIGS. 1(o)-(u) are for Candida albicans. As above, the panels (h) through (u) show the effect of an echinocandin compound, an antimicrobial peptide and a combination of the two on Candida glabrata and Candida albicans.
# Sterile filter paper discs (6 mm, Aa, Whatman) were impregnated with either, peptides or caspofungin alone, or peptides and caspofungin together, and left in sterile Petri dishes overnight at room temperature to dry. Following this, 100 μl of mid-exponential phase culture of yeast was spread onto the surface of MEB, pH 7 plus 2% agarose plates and left to dry for 1 h at room temperature. MEB plates were made with 2% agarose rather than agar because the agar inhibited the action of the antimicrobial peptides. Discs containing the various antifungal combinations were then applied to the surface and the plates were incubated at 30° C. for 48 h. Images showing the zones of inhibition were obtained by scanning the plates using an ImageScanner (GE Healthcare UK Ltd, Chalfont St Giles, UK) with ImageMaster Labscan v 3.00 software (GE Healthcare UK Ltd). Images were annotated using Microsoft PhotoDraw.
# C. albicans SC5314 = type: cell-based, Candida albicans; conditions: RPMI-1640, <0.5 synergy, >4 antagonism, 0.5 to 4 no interaction
# Method: (§1) 96-well micro-titre plate (Greiner Bio-one Ltd, Stonehouse, UK) wells were filled with 150 μl MEB or RPMI-1640, 2% MOPS (Sigma), pH 7 and concentrations of either peptides or caspofungin alone, or combinations of peptides with caspofungin. Approximately 500 cells from mid-exponential phase cultures of the yeast strains described above were then added to each well. Plates were incubated at 30° C. for 48 hours and scanned as described above.
# (§2) Fractional inhibitory concentration (FIC) indices for combinations of caspofungin or anidulafungin with various antimicrobial peptides calculated from chequerboard assays of visible growth inhibition of three Candida strains tested in RPMI-1640. IC values highlighted in grey indicate combinations where no synergy was observed. Fractional Inhibitory Concentration (FIC)=[…] where <0.5 synergy, >4 antagonism and 0.5 to 4 no interaction. (Odds, F. C. (2003) Synergy, antagonism, and what the chequerboard puts between them. J. Antimic. Chemother.) N/A—not tested.
# [2] = tested on: C. albicans (Hospital isolate); type: cell-based, Candida albicans; conditions: RPMI-1640, <0.5 synergy, >4 antagonism, 0.5 to 4 no interaction
# Method: as §1, §2
# [3] = tested on: C. glabrata (Hospital isolate); type: cell-based, Candida glabrata; conditions: RPMI-1640, <0.5 synergy, >4 antagonism, 0.5 to 4 no interaction
# Method: as §1, §2
# [4] = peptide applied together with caspofungin
# [5] = substance alone, at the concentrations displayed
# [6] = peptide combined with anidulafungin
# [7] = peptide combined with caspofungin
Compound,yeast growth (OD600) over 24 h in microtitre plate wells (yeast),"zones of clearing around impregnated filter paper discs on agar plates [1, 4]","zones of clearing around impregnated filter paper discs on agar plates [1, 5]",Fractional inhibitory concentration (FIC) index (C. albicans SC5314; [6]),Fractional inhibitory concentration (FIC) index (C. albicans SC5314; [7]),"Fractional inhibitory concentration (FIC) index [2, 6]","Fractional inhibitory concentration (FIC) index [2, 7]","Fractional inhibitory concentration (FIC) index [3, 6]","Fractional inhibitory concentration (FIC) index [3, 7]"
"CC[C@H](C)[C@H](NC(=O)[C@H](CCSC)NC(=O)[C@H](C)NC(=O)[C@@H]1CCCN1C(=O)[C@@H](NC(=O)[C@@H](NC(=O)[C@H](CCCCN)NC(=O)[C@@H](NC(=O)[C@H](CC(C)C)NC(=O)CNC(=O)CNC(=O)[C@H](CC(C)C)NC(=O)[C@@H](N)Cc1ccccc1)[C@@H](C)CC)[C@@H](C)CC)C(C)C)C(=O)N[C@H]1CSSC[C@@H](C(=O)O)NC(=O)[C@H](CCCCN)NC(=O)[C@H](CCCCN)NC(=O)[C@H]([C@@H](C)O)NC(=O)[C@H](C(C)C)NC(=O)[C@H](C)NC1=O [Ranalexin, ranalexin] (HELM PEPTIDE1{F.L.G.G.L.I.K.I.V.P.A.M.I.C.A.V.T.K.K.C}$PEPTIDE1,PEPTIDE1,14:R3-20:R3$$$V2.0; N-terminus and C-terminus assumed; bridges inferred)",complete abolition of yeast growth,very clear zones of clearing,minimal effect on yeast growth,–,–,–,–,–,–
"CC[C@H](C)C[C@H](C)CCCCCCCCC(=O)N[C@H]1C[C@@H](O)[C@@H](NCCN)NC(=O)[C@@H]2[C@@H](O)CCN2C(=O)[C@H]([C@H](O)CCN)NC(=O)[C@H]([C@H](O)[C@@H](O)c2ccc(O)cc2)NC(=O)[C@@H]2C[C@@H](O)CN2C(=O)[C@H]([C@@H](C)O)NC1=O [caspofungin, 1-[(4R,5S)-5[(2-aminoethyl)amino]-N^2-(10,12-dimethyl-1-oxotetradecyl)-4-hydroxy-L-ornithine]-5-[(3R)-3-hydroxy-L-ornithine]pneumocandin B0]",–,–,no zones of clearing,–,–,–,–,–,–
"ALWKNMLKGIGKLAGK [DsS3(1-16), dermaseptin S3(1-16)]",complete abolition of yeast growth,Evident zones of clearing,no zones of clearing visible,–,–,–,–,–,–
Colistin sulfate,–,–,–,0.230,0.249,–,–,–,–
"GIGKFLHSAKKFGKAFVGEIMNS [Magainin 2, magainin 2]",complete abolition of yeast growth,very clear zones of clearing,minimal effect on yeast growth,0.095,0.144,0.087,0.135,0.376,0.278
Polymyxin B,–,–,–,0.590,0.310,–,–,–,–
